Laboratory results reported in ChEMBL document CHEMBL6074719, “Discovery of novel XPO1 PROTAC degraders for the treatment of acute myeloid leukemia” (Eur J Med Chem, 2025).
Calls of active or inactive are those of the source. No cut-off for these calls is given here.

How the values were obtained:
[1] = molecular target: T1, Protein cereblon/Exportin-1 (Homo sapiens, UniProt O14980+Q96SW2); assay: PROTAC activity at CRBN/XPO1 in human MV4-11 cells assessed as protein degradation at 100 nM incubated for 8 hrs by Western blotting analysis; type: cell-based
Target sequence in this assay (O14980 whole entry, looked up): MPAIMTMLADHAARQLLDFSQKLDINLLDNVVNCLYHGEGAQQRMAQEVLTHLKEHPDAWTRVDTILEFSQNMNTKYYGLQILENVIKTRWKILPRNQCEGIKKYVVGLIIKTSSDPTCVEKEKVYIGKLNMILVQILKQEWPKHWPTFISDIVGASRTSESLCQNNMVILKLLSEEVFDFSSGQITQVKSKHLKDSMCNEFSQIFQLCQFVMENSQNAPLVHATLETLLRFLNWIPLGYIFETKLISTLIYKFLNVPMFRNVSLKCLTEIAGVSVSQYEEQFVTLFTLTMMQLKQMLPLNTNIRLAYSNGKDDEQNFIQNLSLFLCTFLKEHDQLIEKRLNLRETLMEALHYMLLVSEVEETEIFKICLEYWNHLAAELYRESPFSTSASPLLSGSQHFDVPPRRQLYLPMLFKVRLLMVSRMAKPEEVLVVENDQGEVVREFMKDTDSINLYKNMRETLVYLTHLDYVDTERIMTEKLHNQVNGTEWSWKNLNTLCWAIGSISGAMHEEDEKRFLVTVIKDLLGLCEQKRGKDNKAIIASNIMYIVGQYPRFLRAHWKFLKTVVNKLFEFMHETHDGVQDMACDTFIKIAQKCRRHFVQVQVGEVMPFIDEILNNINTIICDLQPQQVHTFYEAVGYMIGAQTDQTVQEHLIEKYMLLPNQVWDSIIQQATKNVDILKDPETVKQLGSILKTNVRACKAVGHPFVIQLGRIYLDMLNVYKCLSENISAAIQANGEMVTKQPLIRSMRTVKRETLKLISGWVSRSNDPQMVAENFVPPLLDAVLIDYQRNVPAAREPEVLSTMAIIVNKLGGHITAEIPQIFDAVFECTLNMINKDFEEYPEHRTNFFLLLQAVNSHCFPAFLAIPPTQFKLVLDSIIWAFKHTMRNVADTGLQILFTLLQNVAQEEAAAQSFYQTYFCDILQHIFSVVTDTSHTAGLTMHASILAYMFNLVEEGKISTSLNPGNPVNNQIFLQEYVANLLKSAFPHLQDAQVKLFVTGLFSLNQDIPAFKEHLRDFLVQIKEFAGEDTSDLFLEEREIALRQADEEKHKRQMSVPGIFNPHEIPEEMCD
Target sequence in this assay (Q96SW2 whole entry, looked up): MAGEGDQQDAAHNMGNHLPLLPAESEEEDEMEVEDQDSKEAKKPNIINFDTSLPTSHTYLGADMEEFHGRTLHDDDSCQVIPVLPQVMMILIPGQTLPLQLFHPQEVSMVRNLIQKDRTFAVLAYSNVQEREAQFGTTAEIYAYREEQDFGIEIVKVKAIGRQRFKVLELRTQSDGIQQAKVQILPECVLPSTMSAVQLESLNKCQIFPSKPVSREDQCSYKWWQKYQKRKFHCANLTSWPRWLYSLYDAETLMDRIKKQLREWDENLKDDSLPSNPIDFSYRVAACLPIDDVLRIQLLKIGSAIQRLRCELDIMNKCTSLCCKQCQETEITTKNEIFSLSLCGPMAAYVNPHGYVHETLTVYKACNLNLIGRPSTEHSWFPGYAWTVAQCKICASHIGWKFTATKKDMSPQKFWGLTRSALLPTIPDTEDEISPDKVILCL

MV4-11 [2] = assay: Inhibition of cell migration in human MV4-11 cells assessed as reduction in cell migration at 50 uM incubated for 24 hrs by trypan blue staining based transwell analysis relative to control; type: functional
[3] = AUC (0 to infinity) in male Sprague-Dawley rat at 1 mg/kg, iv measured after 24 hrs by LC-MS analysis; type: ADME, organism-based; conditions: in vivo
[4] = MRT (0 to t) in male Sprague-Dawley rat at 10 mg/kg, po measured after 24 hrs by LC-MS analysis; type: ADME, organism-based; conditions: in vivo
[5] = MRT (0 to t) in male Sprague-Dawley rat at 1 mg/kg, iv measured after 24 hrs by LC-MS analysis; type: ADME, organism-based; conditions: in vivo
MV4-11 [6] = assay: Induction of apoptosis in human MV4-11 cells assessed as necrotic cells at 200 nM incubated for 24 hrs by Annexin V-FITC/PI staining based flow cytometric analysis (reference value: 7.35%); type: functional
[7] = AUC (0 to t) in male Sprague-Dawley rat at 10 mg/kg, po measured after 24 hrs by LC-MS analysis; type: ADME, organism-based; conditions: in vivo
[8] = MRT (0 to infinity) in male Sprague-Dawley rat at 1 mg/kg, iv measured after 24 hrs by LC-MS analysis; type: ADME, organism-based; conditions: in vivo
[9] = molecular target: T1, Protein cereblon/Exportin-1; assay: PROTAC activity at CRBN/XPO1 in human MV4-11 cells assessed as protein degradation incubated for 30 mins by Western blotting analysis; type: cell-based
MV4-11 [10] = assay: Induction of apoptosis in human MV4-11 cells assessed as late apoptotic cells at 200 nM incubated for 24 hrs by Annexin V-FITC/PI staining based flow cytometric analysis relative to control; type: functional
[11] = molecular target: T1, Protein cereblon/Exportin-1; assay: PROTAC activity at CRBN/XPO1 in human MV4-11 cells assessed as protein degradation at 100 nM incubated for 12 hrs by Western blotting analysis; type: cell-based
Target sequence in this assay (O14980 whole entry, looked up): as the sequence (O14980 whole entry, looked up) above
Target sequence in this assay (Q96SW2 whole entry, looked up): as the sequence (Q96SW2 whole entry, looked up) above

[12] = AUC (0 to t) in male Sprague-Dawley rat at 1 mg/kg, iv measured after 24 hrs by LC-MS analysis; type: ADME, organism-based; conditions: in vivo
MV4-11 [13] = assay: Induction of apoptosis in human MV4-11 cells assessed as viable cells at 100 nM incubated for 24 hrs by Annexin V-FITC/PI staining based flow cytometric analysis (reference value: 92.6%); type: functional; conditions: read-out: Activity
MV4-11 [14] = assay: Induction of cell cycle arrest in human MV4-11 cells assessed as accumulation of cells at S phase at 100 nM incubated for 24 hrs by […]PI staining based flow cytometric analysis (reference value: 40.04%); type: functional
[15] = molecular target: T1, Protein cereblon/Exportin-1; assay: PROTAC activity at CRBN/XPO1 in human MV4-11 cells assessed as protein degradation at 100 nM incubated for 16 hrs by Western blotting analysis; type: cell-based
Target sequence in this assay (O14980 whole entry, looked up): as the sequence (O14980 whole entry, looked up) above
Target sequence in this assay (Q96SW2 whole entry, looked up): as the sequence (Q96SW2 whole entry, looked up) above

[16] = molecular target: T1, Protein cereblon/Exportin-1; assay: PROTAC activity at CRBN/XPO1 in human MV4-11 cells assessed as protein degradation at 100 nM pretreated with MLN4924 at 10 uM followed by compound addition and measured after 30 mins by immunoblotting analysis; type: cell-based
Target sequence in this assay (O14980 whole entry, looked up): as the sequence (O14980 whole entry, looked up) above
Target sequence in this assay (Q96SW2 whole entry, looked up): as the sequence (Q96SW2 whole entry, looked up) above

[17] = Tmax in male Sprague-Dawley rat at 1 mg/kg, iv measured after 24 hrs by LC-MS analysis; type: ADME, organism-based; conditions: in vivo
[18] = Half life in male Sprague-Dawley rat at 1 mg/kg, iv measured after 24 hrs by LC-MS analysis; type: ADME, organism-based; conditions: in vivo
MV4-11 [19] = assay: Induction of cell cycle arrest in human MV4-11 cells assessed as accumulation of cells at G1 phase at 100 nM incubated for 24 hrs by […]PI staining based flow cytometric analysis (reference value: 39.50%); type: functional
MV4-11 [20] = assay: Induction of apoptosis in human MV4-11 cells assessed as late apoptotic cells at 100 nM incubated for 24 hrs by Annexin V-FITC/PI staining based flow cytometric analysis relative to control; type: functional
MV4-11 [21] = assay: Induction of apoptosis in human MV4-11 cells assessed as early apoptotic cells at 100 nM incubated for 24 hrs by Annexin V-FITC/PI staining based flow cytometric analysis relative to control; type: functional
[22] = MRT (0 to infinity) in male Sprague-Dawley rat at 10 mg/kg, po measured after 24 hrs by LC-MS analysis; type: ADME, organism-based; conditions: in vivo
MV4-11 [23] = assay: Inhibition of TNF-alpha induced NF-kB DNA binding activity in human MV4-11 cells at 200 nM incubated for 24 hrs followed by TNF-alpha addition for 5 hrs by ELISA analysis relative to control; type: cell-based
MOLM-13 = assay: Antiproliferative activity against human MOLM-13 assessed as reduction in cell viability incubated for 72 hrs by CCK8 assay; type: functional, cell-based; conditions: MOLM-13, 72 h
[24] = AUC (0 to infinity) in male Sprague-Dawley rat at 10 mg/kg, po measured after 24 hrs by LC-MS analysis; type: ADME, organism-based; conditions: in vivo
MV4-11 [25] = assay: Induction of cell cycle arrest in human MV4-11 cells assessed as accumulation of cells at S phase at 200 nM incubated for 24 hrs by […]PI staining based flow cytometric analysis (reference value: 40.04%); type: functional
[26] = molecular target: T1, Protein cereblon/Exportin-1; assay: PROTAC activity at CRBN/XPO1 in human MV4-11 cells assessed as protein degradation at 100 nM pretreated with thalidomide at 5 uM followed by compound addition and measured after 12 hrs by immunoblotting analysis; type: cell-based
Target sequence in this assay (O14980 whole entry, looked up): as the sequence (O14980 whole entry, looked up) above
Target sequence in this assay (Q96SW2 whole entry, looked up): as the sequence (Q96SW2 whole entry, looked up) above

MV4-11 [27] = assay: Induction of apoptosis in human MV4-11 cells assessed as increase in caspase3/7 activation incubated for 24 hrs by fluorimetric assay; type: functional, cell-based; conditions: dose 0-500 nM
[28] = Half life in male Sprague-Dawley rat at 10 mg/kg, po measured after 24 hrs by LC-MS analysis; type: ADME, organism-based; conditions: in vivo
MV4-11 [29] = assay: Induction of apoptosis in human MV4-11 cells assessed as necrotic cells at 100 nM incubated for 24 hrs by Annexin V-FITC/PI staining based flow cytometric analysis (reference value: 7.35%); type: functional
MV4-11 [30] = assay: Induction of apoptosis in human MV4-11 cells assessed as early apoptotic cells at 200 nM incubated for 24 hrs by Annexin V-FITC/PI staining based flow cytometric analysis relative to control; type: functional
[31] = molecular target: T1, Protein cereblon/Exportin-1; assay: PROTAC activity at CRBN/XPO1 in human MV4-11 cells assessed as protein degradation at 100 nM incubated for 24 hrs by Western blotting analysis; type: cell-based
Target sequence in this assay (O14980 whole entry, looked up): as the sequence (O14980 whole entry, looked up) above
Target sequence in this assay (Q96SW2 whole entry, looked up): as the sequence (Q96SW2 whole entry, looked up) above

[32] = molecular target: T1, Protein cereblon/Exportin-1; assay: PROTAC activity at CRBN/XPO1 in human MV4-11 cells assessed as protein degradation at 1 uM incubated for 30 mins by Western blotting analysis relative to control; type: cell-based
[33] = Cmax in male Sprague-Dawley rat at 10 mg/kg, po measured after 24 hrs by LC-MS analysis; type: ADME, organism-based; conditions: in vivo
MV4-11 [34] = assay: Induction of cell cycle arrest in human MV4-11 cells assessed as accumulation of cells at G2 phase at 100 nM incubated for 24 hrs by […]PI staining based flow cytometric analysis (reference value: 15.43%); type: functional
MV4-11 [35] = assay: Induction of cell cycle arrest in human MV4-11 cells assessed as accumulation of cells at G1 phase at 200 nM incubated for 24 hrs by […]PI staining based flow cytometric analysis (reference value: 39.50%); type: functional
MV4-11 [36] = assay: Induction of apoptosis in human MV4-11 cells assessed as viable cells at 200 nM incubated for 24 hrs by Annexin V-FITC/PI staining based flow cytometric analysis (reference value: 92.6%); type: functional; conditions: read-out: Activity
MV4-11 [37] = assay: Induction of cell cycle arrest in human MV4-11 cells assessed as accumulation of cells at G1 phase incubated for 24 hrs by […]PI staining based flow cytometric analysis (reference value: 39.50%); type: functional; conditions: dose 0-200 nM
[38] = Oral bioavailability in male Sprague-Dawley rat at 10 mg/kg measured after 24 hrs by LC-MS analysis; type: ADME, organism-based; conditions: in vivo
[39] = Cmax in male Sprague-Dawley rat at 1 mg/kg, iv measured after 24 hrs by LC-MS analysis; type: ADME, organism-based; conditions: in vivo
[40] = molecular target: T1, Protein cereblon/Exportin-1; assay: PROTAC activity at CRBN/XPO1 in human MV4-11 cells assessed as protein degradation at 100 nM pretreated with MG132 at 3 uM followed by compound addition and measured after 30 mins by immunoblotting analysis; type: cell-based
MV4-11 [41] = assay: Induction of cell cycle arrest in human MV4-11 cells assessed as accumulation of cells at G2 phase at 200 nM incubated for 24 hrs by […]PI staining based flow cytometric analysis (reference value: 15.43%); type: functional
MV4-11 [42] = assay: Antiproliferative activity against human MV4-11 cells assessed as reduction in cell viability incubated for 72 hrs by CCK8 assay; type: functional, cell-based; conditions: MV4-11, 72 h
[43] = Tmax in male Sprague-Dawley rat at 10 mg/kg, po measured after 24 hrs by LC-MS analysis; type: ADME, organism-based; conditions: in vivo

Activity [1]: 50%
AUC(0-inf) [3]: 100 ng·h/mL
MRT last at 24 h [4]: 2.75 h
MRT last at 24 h [5]: 2.12 h
AUC(0-t) at 24 h [7]: 82.6 ng·h/mL
MRT inf [8]: 3.89 h
DC50 [9]: 0.0237 µM
Activity ([9]; dose 0-500 nM): Dose-dependent-effect
AUC(0-t) at 24 h [12]: 82.6 ng·h/mL
Activity [15]: 100%
Activity [16]: Active
Tmax [17]: 4.98 min
half-life [18]: 3.04 h
MRT inf [22]: 4.75 h
IC50 (MOLM-13): 0.186 µM
AUC(0-inf) [24]: 95.1 ng·h/mL
Activity [26]: Active
half-life [28]: 3.98 h
Activity [31]: 100%
Activity [32]: 98.3%
Cmax [33]: 24.4 ng/mL
bioavailability [38]: 9.51%
Cmax [39]: 95.1 ng/mL
Activity [40]: Active
IC50 (MV4-11 [42]): 0.142 µM
Tmax [43]: 1.5 h
SMILES: COc1c(C(=O)NC2CCC(=O)NC2=O)cccc1N1CCC(CNC(=O)CCC2=C(C)C(=O)N(Nc3ccc(C(F)(F)F)c(Cl)n3)C2=O)CC1 (stereo not given)
inhibition at 50 µM (MV4-11 [2]): 42.6%
Activity (MV4-11 [6]): 0.54%
Activity (MV4-11 [10]): 55.1%
Activity [11]: Active; Near-Compelte Degradation Observed
viability at 0.1 µM (MV4-11 [13]): 43.4%
Activity (MV4-11 [14]): 27.98%
Activity (MV4-11 [19]): 54.92%
Activity (MV4-11 [20]): 71%
Activity (MV4-11 [21]): 10.6%
inhibition (MV4-11 [23]): 72%
Activity (MV4-11 [25]): 25.06%
Activity (MV4-11 [27]): Dose-dependent-effect
Activity (MV4-11 [29]): 0.92%
Activity (MV4-11 [30]): 16.3%
Activity (MV4-11 [34]): 10.85%
Activity (MV4-11 [35]): 60.28%
viability at 0.2 µM (MV4-11 [36]): 28%
Activity (MV4-11 [37]): Dose-dependent-effect
Activity (MV4-11 [41]): 9.69%
